Measurements reported in patent US8608961B2, “Method for affinity chromatography of antithrombin III” (Aventis Pharma S.A., priority 2005, dated 2013).

Test system: factor Xa
Assay: anti-Xa activity of fractions separated by ATIII affinity chromatography
Assay type: biochemical
Details: fractions of LMWH (hexasaccharides) separated on ATIII affinity column 1 (protection: enoxaparin) or column 2 (protection: heparin); hexasaccharide for comparison
Source text: The composition of the elution fractions may then be analyzed according to methods well known to those skilled in the art. Thus, if the fractions analyzed comprise oligosaccharides, those skilled in the art may use the analytical methods described in the prior art: for example and in a nonlimiting manner, capillary electrophoresis, MALDI-TOF mass spectrophotometry, high performance liquid chromatography. Those skilled in the art may also use a biological assay, such as the factor Xa inhibition assay.
In order to corroborate the structural analysis, the anti-Xa activities of the fractions having affinity and not having affinity, separated in column 1 (protection: enoxaparin), were determined.

ΔUA-(1→4)α-GlcNAc(6S)-(1→4)β-GlcA-(1→4)α-GlcNS(NS,3,6S)-(1→4)β-IdA2S-(1→4)α-GlcNS(NS,6S)
anti-Xa activity: 650-700 IU/mg
